# Measured values as given in patent publication US20260124182A1, “NITAZOXANIDE FOR THE TREATMENT OF HEPATIC IMPAIRMENT” (GENFIT, priority 2022, published 2026).
# Key:
# [1] = tested on: BDL+LPS-induced liver impairment rat model; experiment: Evaluation of NTZ efficacy on BDL+LPS-induced liver impairment in rats; type: in vivo, Sprague Dawley rats
# Experimental: The objective of the study was to assess the efficacy of NTZ to prevent LPS-induced inflammation, hepatic dysfunction and brain edema in fibrotic rats that underwent BDL surgery. BDL surgery was performed on 30 Sprague Dawley rats (Janvier). After anesthesia, a median laparotomy was performed to expose the liver and duodenum. The main bile duct was identified and dissected. After that, the bile duct was ligated in two parts: a first ligation was made in the middle of the bile duct, and the second ligation was made above the entrance of the pancreatic duct. The bile duct was then cut in the middle, to avoid recanalization. Fourteen days after surgery, a blood sample was collected from the sublingual vein to measure markers of hepatic injury (serum aspartate aminotransferase (AST), total bile acids and bilirubin) to stratify the animals into treatment groups. […] Two unoperated animals were included in the study as healthy controls. […] Nine rats with BDL received phosphate buffer saline (PBS, Fisher Scientific, USA) instead of LPS to be used as BDL controls. The body weight and food intake were monitored twice a week all along the study. During the fibrosis induction phase, each animal was observed once a day for the monitoring of clinical signs. Observations include changes in the skin, fur, eyes, occurrence of secretions and excretions and autonomic activity (lachrymation, piloerection, unusual respiratory pattern). Changes in gait, posture, stereotypes (e.g. excessive grooming, repetitive circling) or bizarre behavior (self-mutilation, walking backward) are also monitored. Animals were euthanized in case of weight loss of more than 25% for more than 3 consecutive days, absence of food consumption, deterioration of the general condition or vocalization. After LPS administration, each animal was continuously observed (appearance of the animal-change in fur, skin color, the degree of activity, vigilance-response to a stimulus, opening of the eyelids, activity, gait and behaviour) during 7 hours in order to assess the degree of severity of the inflammatory response and pain. Treatment with NTZ 100 mg/kg or vehicle (1% carboxymethylcellulose ([…], Sigma-Aldrich), 0.1% tween 80 ([…], Sigma-Aldrich)) was administered by gavage 1 hour before LPS injection. For oral gavage, NTZ powder was dissolved in CMC 1%, Tween 80 0.1% at the concentration of 10 mg/ml in an amber glass bottle, homogenized with a polytron and sonicated 10 seconds at a power of 10%. NTZ was kept under magnetic stirring until the administration to the rats at 10 ml/kg. LPS solution was prepared under a microbiological safety cabinet, in order to have a sterile solution to inject to rats. The LPS solution was dissolved in phosphate buffer saline (PBS) at 0.5 μg/ml, aliquoted and frozen until the day of experiment. LPS was administered at 2 ml/kg to the rats. All surviving animals were euthanized 3 h after LPS injection for plasma and tissues analyses. At the end of the study, by plasma level of hepatic function markers and cytokines, and brain edema have been evaluated.
# [2] = Open-label multiple-dose PK, safety and tolerability study of NTZ 500 mg BID for 7 days in subjects with moderate or severe hepatic impairment vs normal hepatic function; settings: for Cmax: Cmax GM; for AUC0-12 GM Ratio (Impaired/Control) / AUC0-t GM Ratio (Impaired/Control) / Cmax GM Ratio (Impaired/Control): steady state; for correlation coefficient AUC0-12 vs ALT / correlation coefficient AUC0-12 vs AST / correlation coefficient AUC0-12 vs Albumin / correlation coefficient AUC0-12 vs Bilirubin / correlation coefficient AUC0-12 vs INR / correlation coefficient Cmax vs ALT / correlation coefficient Cmax vs AST / correlation coefficient Cmax vs Albumin / correlation coefficient Cmax vs Bilirubin / correlation coefficient Cmax vs INR: highest among Pearson (P) and Spearman (S), natural (NS) and log (LS) scales, marker at screening
# Experimental: The study design was an open-label, nonrandomized, 2-center, multiple-dose, parallel-group study to evaluate the PK as well as the safety and tolerability of NTZ 500 mg BID administration for 7 days in males and females patients with moderate and severe hepatic impairment as compared to matched control healthy males and females patients with normal hepatic function.
# The objective was to assess the effect of hepatic impairment on the PK of tizoxanide (TZ; NTZ active metabolite), following repeated oral dose administration of NTZ 500 mg BID for 7 days in subjects with moderate or severe hepatic impairment and subjects with normal hepatic function.
# The following parameters used to measure the hepatic function were considered for the evaluation of the degree of hepatic impairment on NTZ PK: Child-Pugh (CP) score (*), serum albumin, serum total bilirubin, international normalized ratio (INR), aspartate aminotransferase (AST), alanine aminotransferase (ALT).
# (*) For the control match healthy subject group, CP score was not calculated, and the analysis was limited to hepatic impaired patients.
# Subjects were enrolled within the following groups based on their CP score at Screening: • Group 1: Normal hepatic function • Group 2: Moderate hepatic impairment (CP Class B) • Group 3: Severe hepatic impairment (CP Class C)
# On Day 1, the study subjects took 500 mg NTZ (1 tablet) with 240 mL (8 fluid ounces) of water 30 minutes after the start of the standardized breakfast. No food was allowed for at least 4 h after each dose. Blood PK samples were taken at the following timepoints: pre-dose (completed in fasted state prior to the start of the standardized breakfast), T1h, T2h, T3h, T4h, T5h, T6h, T7h, T8h, T10h and T12h post-dose.
# From Day 2 to Day 6, subjects received 500 mg of nitazoxanide (1 tablet) in the morning and in the evening for 6 consecutive days and on Day 7 the last dose was administered in the morning. Pre-dose blood PK sample was collected in fasted state prior to the start of the standardized breakfast each morning from Day 2 to Day 6.
# On Day 7, blood PK samples were taken at the following timepoints: Pre-dose (completed in fasted state prior to the start of the standardized breakfast), T1h, T2h, T3h, T4h, T5h, T6h, T7h, T8h, T10h, T12h, T14h and T16h post-dose. PK samples at T18h, T24h and T48h post dose were taken respectively on D8 and D9.
# The primary analysis was to assess the difference in the PK parameters (Cmax, AUC0-12 and AUC0-t) of total TZ after repeated oral administration of NTZ 500 mg BID for 7 days in subjects with moderate or severe hepatic impairment and subjects with normal hepatic function.
# The secondary analysis was to determine the accumulation ratios on AUC0-12 and Cmax measured after a single (Day 1) and a 7-day repeated (BID) oral administrations.
# The relationship between hepatic function markers (serum albumin, serum total bilirubin, INR, AST and ALT (obtained at screening)) and PK parameters (Cmax and AUC0-12) for TZ and TZ Glu (total and unbound) were investigated and evaluated using graphical and correlation techniques.
# Both Pearson (supporting a linear trend) and Spearman correlation (supporting a monotonic trend) coefficients were calculated. The correlation coefficients (p) were used to measure appropriately the association for most possible relationship and only strong correlations (i.e. p≥0.75) would support further modeling.
# [3] = NTZ 100 mg/kg by gavage 1 hour before LPS, blood collected 3 hours after LPS
# [4] = total TZ, all groups combined, listed as Total TZ
# [5] = total TZ, Moderate (CP B) vs Control
# [6] = total TZ, Severe (CP C) vs Control
compound,measurement,setting,value
"CC(=O)Oc1ccccc1C(=O)Nc1ncc([N+](=O)[O-])s1 [NTZ, nitazoxanide]",brain edema: change of brain water content compared to the BDL condition,"[1]; NTZ 100 mg/kg by gavage 1 hour before LPS, 3 h after LPS, p=0.006",−111%
same,decrease of circulating IL-1β,[1]; [3],91%
same,decrease of circulating IL-6,[1]; [3],93%
same,decrease of circulating TNFα,[1]; [3],94%
same,percentage of liver fibrosis,"[1]; NTZ 100 mg/kg by gavage 1 hour before LPS, euthanized 3 h after LPS, data not shown",Neither LPS nor NTZ treatment affected the percentage of liver fibrosis
same,"LPS-induced alteration of plasma total bile acids, total bilirubin, albumin and GGT","[1]; NTZ 100 mg/kg by gavage 1 hour before LPS, plasma 3 h after LPS",tended to reduce the LPS-induced alteration of these markers
same,reduction of plasma urea (LPS-induced renal impairment),"[1]; NTZ 100 mg/kg by gavage 1 hour before LPS, plasma 3 h after LPS, p=0.007",84%
same,reduction of plasma ASAT compared to the ACLF-Veh condition,"[1]; NTZ 100 mg/kg by gavage 1 hour before LPS, plasma 3 h after LPS, p=0.01",100%
same,reduction of plasma ALAT compared to the ACLF-Veh condition,"[1]; NTZ 100 mg/kg by gavage 1 hour before LPS, plasma 3 h after LPS, p=0.03",101%
same,"LPS-induced rise in ALT, change with NTZ","[1]; NTZ 100 mg/kg, conclusions",−101%
same,"LPS-induced rise in AST, change with NTZ","[1]; NTZ 100 mg/kg, conclusions",−100%
same,"LPS-induced rise in urea, change with NTZ","[1]; NTZ 100 mg/kg, conclusions",−84%
same,brain edema: water content (in words),"[1]; NTZ 100 mg/kg, conclusions",totally restored the water content to the level of BDL and healthy rats
same,safety in patients with hepatic impairment,[2]; NTZ 500 mg BID for 7 days,safe
"O=C(Nc1ncc([N+](=O)[O-])s1)c1ccccc1O [TZ, tizoxanide]",fraction of the dose recovered in urine over 12 h,"[2]; Day 1 and Day 7, regardless of the group",less than 1%
same,Tmax,"[2]; both, human, blood, oral, 500 mg",3.5 to 5 h
same,AUC(0-t),"[2]; both, human, blood, oral, 500 mg, AUC0-12 GM, total TZ, all groups combined (Total), DAY 1, single 500 mg NTZ dose",115 µM·h
same,AUC(0-t),"[2]; both, human, blood, oral, 500 mg, AUC0-12 GM, total TZ, all groups combined (Total), DAY 7, NTZ 500 mg BID",183 µM·h
same,AUC(0-t),"[2]; both, human, blood, oral, 500 mg, AUC0-12 GM, total TZ, steady state after NTZ 500 mg BID 7 days, Moderate (CP B)",145 µM·h
same,AUC(0-t),"[2]; both, human, blood, oral, 500 mg, AUC0-12 GM, total TZ, steady state after NTZ 500 mg BID 7 days, Severe (CP C)",264 µM·h
same,AUC(0-t),"[2]; both, human, blood, oral, 500 mg, AUC0-t GM, total TZ, steady state after NTZ 500 mg BID 7 days, Control group (normal hepatic function)",165 µM·h
same,AUC(0-t),"[2]; both, human, blood, oral, 500 mg, AUC0-t GM, total TZ, steady state after NTZ 500 mg BID 7 days, Moderate (CP B)",150 µM·h
same,AUC(0-t),"[2]; both, human, blood, oral, 500 mg, AUC0-t GM, total TZ, steady state after NTZ 500 mg BID 7 days, Severe (CP C)",297 µM·h
same,Cmax,"[2]; both, human, blood, oral, 500 mg, total TZ, all groups combined (Total), DAY 1, single 500 mg NTZ dose",24.8 µM
same,Cmax,"[2]; both, human, blood, oral, 500 mg, total TZ, all groups combined (Total), DAY 7, NTZ 500 mg BID",34.7 µM
same,Cmax,"[2]; both, human, blood, oral, 500 mg, total TZ, steady state after NTZ 500 mg BID 7 days, Control group (normal hepatic function)",35.3 µM
same,Cmax,"[2]; both, human, blood, oral, 500 mg, total TZ, steady state after NTZ 500 mg BID 7 days, Moderate (CP B)",28.2 µM
same,Cmax,"[2]; both, human, blood, oral, 500 mg, total TZ, steady state after NTZ 500 mg BID 7 days, Severe (CP C)",42 µM
same,half-life,"[2]; both, human, blood, oral, 500 mg, GM t1/2, Day 1",~2 h
same,half-life,"[2]; both, human, blood, oral, 500 mg, GM t1/2, Day 7, severe impairment group",4 h
same,AUC(0-t),"[2]; both, human, in vivo, oral, 500 mg, AUC0-12 GM, total TZ, steady state after NTZ 500 mg BID 7 days, Control group (normal hepatic function)",162 µM·h
same,CL renal,"[2]; both, human, urine, oral, 500 mg",0.0333 to 0.5 mL/min
same,AUC0-12 accumulation GM Ratio (Day 7/Day 1),[2]; [4],1.5980
same,Cmax accumulation GM Ratio (Day 7/Day 1),[2]; [4],1.3993
same,Cmax accumulation GM Ratio (Day 7/Day 1),"[2]; total TZ, all groups combined, listed as total TZ",around 1.4
same,AUC0-12 GM Ratio (Impaired/Control),[2]; [5],0.8960
same,AUC0-t GM Ratio (Impaired/Control),[2]; [5],0.9064
same,Cmax GM Ratio (Impaired/Control),[2]; [5],0.8008
same,AUC0-12 GM Ratio (Impaired/Control),[2]; [6],1.6353
same,AUC0-t GM Ratio (Impaired/Control),[2]; [6],1.7940
same,Cmax GM Ratio (Impaired/Control),"[2]; total TZ, Severe (CP C) vs Control, listed as Total TZ",1.1921
same,Cmax GM Ratio (Impaired/Control),"[2]; total TZ, Severe (CP C) vs Control, listed as total TZ",1.19
same,correlation coefficient AUC0-12 vs ALT,[2]; total analyte,P (LS): −0.07
same,correlation coefficient AUC0-12 vs AST,[2]; total analyte,P (NS): 0.17
same,correlation coefficient AUC0-12 vs Albumin,[2]; total analyte,P (NS): −0.4
same,correlation coefficient AUC0-12 vs Bilirubin,[2]; total analyte,P (NS): 0.43
same,correlation coefficient AUC0-12 vs INR,[2]; total analyte,P (NS): 0.46
same,correlation coefficient Cmax vs ALT,[2]; total analyte,P (LS): −0.17
same,correlation coefficient Cmax vs AST,[2]; total analyte,P (LS): −0.05
same,correlation coefficient Cmax vs Albumin,[2]; total analyte,P (NS): −0.25
same,correlation coefficient Cmax vs Bilirubin,[2]; total analyte,P (NS): 0.47
same,correlation coefficient Cmax vs INR,[2]; total analyte,P (NS): 0.46
same,correlation coefficient AUC0-12 vs ALT,[2]; unbound (u-) analyte,P (LS): −0.06
same,correlation coefficient AUC0-12 vs AST,[2]; unbound (u-) analyte,P (NS): 0.15
same,correlation coefficient AUC0-12 vs Albumin,[2]; unbound (u-) analyte,P (NS): −0.37
same,correlation coefficient AUC0-12 vs Bilirubin,[2]; unbound (u-) analyte,P (NS): 0.47
same,correlation coefficient AUC0-12 vs INR,[2]; unbound (u-) analyte,P (NS): 0.5
same,correlation coefficient Cmax vs ALT,[2]; unbound (u-) analyte,P (LS): −0.15
same,correlation coefficient Cmax vs AST,[2]; unbound (u-) analyte,S (NS): −0.09
same,correlation coefficient Cmax vs Albumin,[2]; unbound (u-) analyte,P (NS): −0.24
same,correlation coefficient Cmax vs INR,[2]; unbound (u-) analyte,P (NS): 0.49
same,correlation coefficient Cmax vs Bilirubin,"[2]; unbound (u-) analyte, listed as u-Tizoxanide",P (NS): 0.51
same,correlation coefficient Cmax vs Bilirubin,"[2]; unbound (u-) analyte, listed as unbound TZ",0.51
